According to patent US12187705B2, “Heteroaryl-triazole and heteroaryl-tetrazole compounds as pesticides” (Bayer Aktiengesellschaft, priority 2018, dated 2025):

Tests used:
Type in all cases: in vivo
Diabrotica balteata = Diabrotica balteata spray test; conditions: 160 μg/well, wheat seeds, after 7 days; for pest or weed control at 160 µg/disc, 160 µg/well: Diabrotica balteata, 168 h, read-out: efficacy (seedlings grown)
Procedure, shortened: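 Wheat seeds germinated 1 day on agar were sprayed with compound diluted in water with 1000 ppm emulsifier, then infested with 10-20 Diabrotica balteata larvae. Efficacy in % scored after 7 days: 100% = seedlings grown as untreated, uninfected control; 0% = no seedlings grown.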

Rhipicephalus sanguineus = Rhipicephalus sanguineus in-vitro contact test with adult brown dog ticks; conditions: 5 μg/cm^2 (=500 g/ha), after 48 hours
Method: Rhipicephalus sanguineus—In-Vitro Contact Test with Adult Brown Dog Ticks
9 mg compound is solved in 1 ml acetone and diluted with acetone to the desired concentration. 250 μl of the test solution is filled in 25 ml glass test tubes and homogeneously distributed on the inner walls by rotation and tilting on a shaking device (2 h at 30 rpm). With a compound concentration of 900 ppm, an inner surface of 44.7 cm^2 and a homogeneous distribution, a dose of 5 μg/cm^2 is achieved.
After the solvent has evaporated, each test tube is filled with 5-10 adult brown dog ticks (Rhipicephalus sanguineus), closed with a perforated lid and incubated in a lying position at room temperature and relative humidity. After 48 hours efficacy is determined. The ticks are patted on the ground of the tubes and are incubated on a heating plate at 45-50° C. for at most 5 minutes. Immotile or uncoordinated moving ticks, which are not able to escape the heat by climbing upwards, are marked as dead or moribund.
An efficacy of 100% means all ticks are dead or moribund; 0% means no ticks are dead or moribund.

[1] = test system: cattle ticks (Boophilus microplus) strane Parhurst, SP-resistant; assay: Boophilus microplus dip test; conditions: 100 ppm, egg deposition after 7 days
Method: Boophilus microplus—Dip Test
Test animal: cattle ticks (Boophilus microplus) strane Parhurst, SP-resistant
Solvent: dimethyl sulfoxide
To produce a suitable preparation of active compound, 10 mg of active compound are dissolved in 0.5 ml solvent, and the concentrate is diluted with water to the desired concentration.
This compound solution is pipetted into tubes. 8-10 engorged, adult, female cattle ticks (Boophilus microplus) are placed in perforated tubes. These tubes are immersed in the aqueous compound solution until the ticks are completely moistened. After the liquid has drained off, the ticks are transferred to a filter paper in a plastic tray and stored in a climate chamber.
After 7 days egg deposition of fertile eggs is monitored. Eggs where fertility is not visible are stored in a climate chamber till hatching after about 42 days. An efficacy of 100% means all eggs are infertile; 0% means all eggs are fertile.

Ctenocephalides felis [2] = assay: Ctenocephalides felis in-vitro contact test adult cat flea; conditions: 5 μg/cm^2 (=500 g/ha), after 48 hours; for pest or weed control at 5 µg/cm2, 5 µg/cm2: Ctenocephalides felis, read-out: efficacy (fleas dead or moribund)
Procedure, shortened: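 Compound in acetone was coated on glass tube walls, giving 5 μg/cm^2 at 900 ppm. 5-10 adult cat fleas were held at room temperature for 48 h, then heat-challenged at 45-50° C. Fleas immotile or uncoordinated were scored dead/moribund, expressed as % efficacy.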

Boophilus microplus = Boophilus microplus injection test; conditions: 20 μg/animal, egg deposition after 7 days; for pest or weed control at 0.02 mg: Rhipicephalus microplus, 168 h, read-out: efficacy (infertile eggs)
Procedure, shortened: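 Engorged adult female ticks, five per dose, received 1 μl of compound in DMSO injected into the abdomen and were kept in a climate chamber. Fertile egg deposition was checked after 7 days, with eggs of unclear fertility held until hatching at about 42 days. Efficacy 100% = all eggs infertile, 0% = all fertile.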

Tetranychus urticae = Tetranychus urticae spray test OP-resistant; conditions: French bean leaf disks, after 6 days; for mortality at 500 g/ha: Tetranychus urticae, foliar, 144 h; for mortality: 500 g/ha
Method: Tetranychus urticae—Spray Test OP-Resistant
(§1) To produce a suitable preparation of active compound, 1 part by weight of active compound is mixed with the stated amount of solvents and is diluted with water, containing an emulsifier concentration of 1000 ppm, to the desired concentration. Further test concentrations are prepared by dilution with emulsifier containing water.
French bean (Phaseolus vulgaris) leaf disks infected with all instars of the two spotted spidermite (Tetranychus urticae), are sprayed with a preparation of the active ingredient of the desired concentration.
After 6 days mortality in % is determined. 100% means all spider mites have been killed and 0% means none of the spider mites have been killed.

Phaedon cochleariae = Phaedon cochleariae spray test; conditions: foliar, 168 h, Chinese cabbage leaf disks, after 7 days
Method: Phaedon cochleariae—Spray Test
as §1
Chinese cabbage (Brassica pekinensis) leaf disks are sprayed with a preparation of the active ingredient of the desired concentration. Once dry, the leaf disks are infested with mustard beetle larvae (Phaedon cochleariae).
After 7 days mortality in % is determined. 100% means all beetle larvae have been killed and 0% means none of the beetle larvae have been killed.

Spodoptera frugiperda = Spodoptera frugiperda spray test; conditions: in Zea mays, 168 h
Procedure, shortened: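 Maize leaf sections sprayed with compound diluted in water with 1000 ppm emulsifier, then infested with larvae once dry. Mortality (%) scored after 7 days; 100% = all caterpillars killed.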

Nilaparvata lugens = Nilaparvata lugens spray test; conditions: Nilaparvata lugens, in Oryza sativa, 96 h
Procedure, shortened: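 Rice plants sprayed with compound diluted in water containing 1000 ppm emulsifier, then infested with brown planthopper. Mortality (%) scored after 4 days, 100% meaning all insects killed.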

Myzus persicae [3] = assay: Myzus persicae oral test; conditions: 120 h
Procedure, shortened: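 Feeding test: compound diluted in water was combined with IPL41 insect medium (33%+15% sugar) under a parafilm seal. A mixed population of green peach aphids fed through the membrane. Mortality (%) was scored after 5 days.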

Nezara viridula = Nezara viridula spray test; conditions: in Hordeum vulgare, 96 h
Procedure, shortened: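 Barley plants infested with stink bug larvae were sprayed with compound diluted in water containing 1000 ppm emulsifier. Mortality (%) was scored after 4 days, 100% meaning all bugs killed.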

Myzus persicae [4] = assay: Myzus persicae spray test; conditions: in Brassica rapa, foliar, 120 h
Procedure, shortened: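 Chinese cabbage leaf disks infested with all aphid instars were sprayed with compound diluted in water containing emulsifier (1000 ppm). Mortality (%) was scored after 5 days, 100% meaning all aphids killed.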

Ctenocephalides felis [5] = assay: Ctenocephalides felis oral test; conditions: for mortality at 100 ppm: Ctenocephalides felis, in Bos taurus, po, 48 h
Procedure, shortened: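 About 20 adult unfed fleas fed through parafilm on cattle blood containing compound (DMSO concentrate diluted in blood); blood held at 37° C., fleas at room temperature. Mortality in % scored after 2 days (100% = all killed).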

[6] = test system: Aedes aegypti strain MONHEIM; assay: Aedes aegypti test (AEDSAE surface treatment & contact assay); conditions: 24 hours after contact, read-out: efficacy (mortality); for mortality at 20 mg/m2: surface concentration 20 mg/m^2, 30 minutes exposure; for mortality at 4 mg/m2: surface concentration 4 mg/m^2, 30 minutes exposure
Procedure, shortened: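 Compound dissolved in acetone (2 mg/ml) with 2000 ppm rapeseed oil methyl ester and dried onto a glazed tile. Adult mosquitoes held on the treated surface for 30 minutes exposure. Percent mortality scored 24 hours after contact.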

[7] = test system: Culex quinquefasciatus strain P00; assay: Culex quinquefasciatus test (CULXFA surface treatment & contact assay); conditions: 24 hours after contact, read-out: efficacy (mortality); for mortality at 20 mg/m2: surface concentration 20 mg/m^2, 30 minutes exposure; for mortality at 4 mg/m2: surface concentration 4 mg/m^2, 30 minutes exposure
Procedure, shortened: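 Compound dissolved in acetone (2 mg/ml) with 2000 ppm rapeseed oil methyl ester, applied to glazed tile and dried. Adult strain P00 mosquitoes exposed to the surface for 30 minutes. Percent mortality scored 24 hours after contact.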

Row | Structure (SMILES) | efficacy (infertile eggs) [1] [%] | pest or weed control at 160 µg/disc, 160 µg/well (Diabrotica balteata) [%] | mortality at 500 g/ha (Phaedon cochleariae) [%] | pest or weed control at 5 µg/cm2, 5 µg/cm2 (Ctenocephalides felis [2]) [%] | mortality at 500 g/ha (Spodoptera frugiperda) [%] | mortality at 500 g/ha (Nilaparvata lugens) [%] | mortality at 4 ppm (Myzus persicae [3]) [%] | mortality at 20 ppm (Myzus persicae [3]) [%] | mortality at 500 g/ha (Nezara viridula) [%] | mortality at 100 ppm (Ctenocephalides felis [5]) [%] | mortality at 20 mg/m2 [6] [%] | pest or weed control at 0.02 mg (Boophilus microplus) [%] | mortality at 20 mg/m2 [7] [%] | further results
1 | Cc1nc(C(C)NC(=O)c2cc(Cl)cc(S(C)(=O)=O)c2)n(-c2ncccn2)n1 (stereo not shown) [Example I-034] | 100 |  |  |  |  |  |  |  |  |  |  |  |  | efficacy (seedlings grown) (Diabrotica balteata): 100%; efficacy (ticks dead or moribund) (Rhipicephalus sanguineus): 80%; efficacy (fleas dead or moribund) (Ctenocephalides felis [2]): 100%; efficacy (infertile eggs) (Boophilus microplus): 100%
2 | CC(c1ncnn1-c1ncccn1)N(CC1CC1)C(=O)c1cccc(S(=O)(=O)C(F)(F)F)c1 (stereo not shown) [Example I-005, N-(cyclopropylmethyl)-N-{1-[1-(pyrimidin-2-yl)-1H-1,2,4-triazol-5-yl]ethyl}-3-[(trifluoromethyl)sulfonyl]benzamide] |  | 100 | 100 | 90 | 100 | 100 | 90 | 100 | 100 |  |  |  |  | mortality at 500 g/ha (Tetranychus urticae): 80%
3 | CC(NC(=O)c1cncc(-c2ccc(Cl)cc2)c1)c1ncnn1-c1ncccn1 (stereo not shown) [Example I-112] |  |  |  |  |  |  |  |  |  |  |  |  |  | mortality (Tetranychus urticae): 90%
4 | CC(C)Sc1cc(Cl)cc(C(=O)N[C@@H](C)c2ncnn2-c2ncccn2)c1 [Example I-046, 3-chloro-5-(isopropylsulfanyl)-N-{(1S)-1-[1-(pyrimidin-2-yl)-1H-1,2,4-triazol-5-yl]ethyl}benzamide] | 100 |  |  | 100 | 100 | 90 | 100 |  | 100 | 100 | 90 to 100 | 100 | 80 to 100 | mortality at 500 g/ha (Myzus persicae [4]): 100%
5 | CCS(=O)(=O)c1cc(Cl)cc(C(=O)N[C@@H](C)c2ncnn2-c2ncccn2)c1 [Example I-044, 3-chloro-5-(ethylsulfonyl)-N-{(1S)-1-[1-(pyrimidin-2-yl)-1H-1,2,4-triazol-5-yl]ethyl}benzamide] | 100 | 100 |  | 100 | 83 | 100 | 100 |  | 100 | 100 | 90 to 100 | 100 | 80 to 100 | mortality at 500 g/ha (Myzus persicae [4]): 100%; mortality at 4 mg/m2 [6]: 80 to 100%; mortality at 4 mg/m2 [7]: 80 to 100%
6 | C[C@@H](NC(=O)c1cc(Cl)cc(S(C)(=O)=O)c1)c1ncnn1-c1ncc(Cl)cn1 [Example I-038] | 100 |  |  | 100 | 100 |  | 100 |  | 100 | 100 | 90 to 100 | 100 | 80 to 100 | mortality at 4 mg/m2 [6]: 80 to 100%; mortality at 4 mg/m2 [7]: 80 to 100%
7 | CC(c1ncnn1-c1ncccn1)N(CC1CC1)C(=O)c1cc(C2CC2)cc(C(F)(F)F)c1 (stereo not shown) [Example I-008] |  | 100 | 100 |  | 100 | 100 | 100 | 100 | 100 |  |  |  |  | mortality at 500 g/ha (Tetranychus urticae): 95%
8 | CC(NC(=O)c1ccc(S(=O)(=O)C(F)(F)F)cc1)c1ncnn1-c1ncccn1 (stereo not shown) [Example I-056] |  |  |  |  |  |  |  |  |  |  |  |  |  | mortality (Tetranychus urticae): 90%; mortality (Ctenocephalides felis [5]; 100 ppm in cattle blood, after 2 days): 90%
9 | CC(NC(=O)c1cc(Cl)cc(S(C)(=O)=O)c1)c1ncnn1-c1ncc(F)cn1 (stereo not shown) [Example I-036] | 90 |  |  |  |  |  |  |  |  |  |  |  |  | efficacy (seedlings grown) (Diabrotica balteata): 100%; efficacy (ticks dead or moribund) (Rhipicephalus sanguineus): 80%; efficacy (fleas dead or moribund) (Ctenocephalides felis [2]): 100%; efficacy (infertile eggs) (Boophilus microplus): 100%
10 | CC(NC(=O)c1cc(Cl)cc(S(C)(=O)=O)c1)c1ncnn1-c1ncccn1 (stereo not shown) [Example I-020, 3-chloro-5-(methylsulfonyl)-N-{1-[1-(pyrimidin-2-yl)-1H-1,2,4-triazol-5-yl]ethyl}benzamide] | 100 | 100 | 100 | 100 |  | 100 | 100 | 100 | 100 | 100 |  | 100 |  | 
